According to US20260167622A1, “PAN-KRAS DEGRADING AGENT, AND PREPARATION METHOD THEREFOR AND USE THEREOF” (LEADINGTAC PHARMACEUTICAL (SHAOXING) CO., LTD., priority 2022, published 2026):

Key:
Assay type in all cases: cell-based
[1] = molecular target: T1, KRAS G12V protein in SW900 cells (Homo sapiens, UniProt P01116, G12V); assay: KRAS degradation assay (Western Blot) in SW900 cells; conditions: 24 h
T1 construct: endogenous in cells; host or cells: SW900
Method in brief: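 Cells seeded at 5×10^5 cells/well, incubated overnight, then treated 24 h at 37 °C with compound (final 0.03–3000 nM, 0.25% DMSO). KRAS in lysates measured by Western blot with β-actin normalisation; degradation versus vehicle control fitted to give DC50 and Dmax.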

[2] = test system: KRAS G12D mutant human lung cancer cell A427; assay: 3D cell proliferation inhibition assay, A427; conditions: A-427, 168 h, 3D culture, 7 days, CTG
Description: (§1) Test Example 6: 3D Cell Proliferation Inhibition Assay
(§2) The inhibitory effects of the compounds on 3D cell proliferation were investigated on KRAS G12C mutant human non-small cell lung cancer cell NCI-H358, KRAS G12D mutant human lung cancer cell A427, KRAS G12D mutant human gastric cancer cell AGS, KRAS G12D mutant human metastatic pancreatic cancer cell AsPc-1, KRAS G12V mutant human lung squamous carcinoma cell SW900, KRAS G12V mutant human colorectal cancer cell SW620, KRAS G13D mutant human colorectal cancer epithelial cell DLD-1, and KRAS WT human gastric cancer cell MKN1. The specific procedures were as follows:
(§3) 10 μL of each compound solution diluted in a gradient was added to corresponding wells of a 96-well low-adsorption microplate (PerkinElmer), so that the final concentrations of the test compounds in the reaction system were in a range of 10000-0.026 nM. The final concentration of DMSO was 0.2%. Then 90 µL of cells were correspondingly seeded into each well to achieve a cell density of 5×10^2 cells/well (the cell density of SW900 was 5×10^3 cells/well, and the cell density of MKN1 was 1×10^3 cells/well). In addition to test wells for the test compounds, both a DMSO control well and a medium control well were set, with the DMSO control well containing DMSO and cells and the medium well containing only a medium. After the sample loading, the 96-well low-adsorption microplate was incubated in an incubator at 37° C. with […] for 7 days. After 7 days, the microplate was taken out, and 100 μL of CTG reagent (Promega) was added to each well. The plate was incubated at room temperature for 60 m and read on a microplate reader EnVision by the chemiluminescence program. The inhibition rates of the compounds at each concentration were calculated using the formula for the percentage inhibition of cell proliferation: inhibition rate 00=(mean value of DMSO control group−single concentration reading value of compound)/(mean value of DMSO control group−mean value of medium control group)×100. Then non-linear curve fillings for logarithmic concentration-inhibition rate were performed by GraphPad Prism 8, and the IC50 values of the compounds were obtained (Table 6).

[3] = test system: KRAS G12D mutant human gastric cancer cell AGS; assay: 3D cell proliferation inhibition assay, AGS; conditions: 168 h, 3D culture, 7 days, CTG
Description: as §1, §2, §3

[4] = test system: KRAS G12D mutant human metastatic pancreatic cancer cell AsPc-1; assay: 3D cell proliferation inhibition assay, AsPc-1; conditions: ASPC1, 168 h, 3D culture, 7 days, CTG
Method in brief: (§4)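 Cells were seeded in low-adsorption 96-well plates at 5×10^2 cells/well (MKN1 at 1×10^3) with compounds at final 10000-0.026 nM, 0.2% DMSO, and grown 7 days at 37° C. CTG luminescence gave inhibition relative to DMSO and medium-only controls, and IC50 came from a log-concentration curve fit.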

[5] = test system: KRAS G12C mutant human non-small cell lung cancer cell NCI-H358; assay: 3D cell proliferation inhibition assay, NCI-H358; conditions: NCI-H358, 168 h, 3D culture, 7 days, CTG
Method in brief: as §4

[6] = test system: KRAS G12V mutant human lung squamous carcinoma cell SW900; assay: 3D cell proliferation inhibition assay, SW900; conditions: SW900, 168 h, 3D culture, 7 days, CTG
Description: as §1, §2, §3

[7] = test system: KRAS G13D mutant human colorectal cancer epithelial cell DLD-1; assay: 3D cell proliferation inhibition assay, DLD-1; conditions: DLD-1, 168 h, 3D culture, 7 days, CTG
Method in brief: as §4

[8] = test system: KRAS WT human gastric cancer cell MKN1; assay: 3D cell proliferation inhibition assay, MKN1; conditions: MKN-1, 168 h, 3D culture, 7 days, CTG
Description: as §1, §2, §3

[9] = test system: KRAS G12V mutant human colorectal cancer cell SW620; assay: 3D cell proliferation inhibition assay, SW620; conditions: SW-620, 168 h, 3D culture, 7 days, CTG
Method in brief: as §4

T1 sequence (P01116 1-188 isoform P01116-2 G12V): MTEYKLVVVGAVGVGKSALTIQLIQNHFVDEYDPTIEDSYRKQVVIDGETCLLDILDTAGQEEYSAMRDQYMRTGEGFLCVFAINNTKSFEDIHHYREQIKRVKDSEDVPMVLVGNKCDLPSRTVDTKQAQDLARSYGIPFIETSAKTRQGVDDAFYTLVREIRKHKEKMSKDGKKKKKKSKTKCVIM

DC50 [1] [nM] | Dmax [1] [%] | IC50 [2] [nM] | IC50 [3] [nM] | IC50 [4] [nM] | IC50 [5] [nM] | IC50 [6] [nM] | IC50 [7] [nM] | IC50 [8] [nM] | IC50 [9] [nM] | Structure (SMILES)
≤ 50 | 80 to 100 | 100 to 500 | 50 to 100 | ≤ 50 | 100 to 500 | ≤ 50 | – | ≤ 50 | 9.33 | C#Cc1cccc2cc(O)cc(-c3ccc4c(N5CCC[C@@](C)(O)C5)nc(OCC5(CN6CCN(CC7CCC8(CC7)CCN(C(=O)c7ccc(OC)c(N9CCC(=O)NC9=O)c7)CC8)CC6)CC5)nc4c3F)c12 [Example 24, (R)-1-(5-(9-((4-((1-(((7-(8-ethynyl-3-hydroxynaphthalen-1-yl)-8-fluoro-4-(3-hydroxy-3-methylpiperidin-1-yl)quinazolin-2-yl)oxy)methyl)cyclopropyl)methyl)piperazin-1-yl)methyl)-3-azaspiro[5.5]undecane-3-carbonyl)-2-methoxyphenyl)dihydropyrimidine-2,4(1H,3H)-dione]
≤ 50 | 80 to 100 | 500 to 1000 | ≤ 50 | ≤ 50 | ≤ 50 | 100 to 500 | – | ≤ 50 | – | C#Cc1c(F)ccc2cc(O)cc(-c3ncc4c(N5CCC[C@@](C)(O)C5)nc(OCC5(CN6CCN(CC7CCC8(CC7)CCN(C(=O)c7ccc9c(c7)C(=O)N(C7CCC(=O)NC7=O)C9)CC8)CC6)CC5)nc4c3F)c12 (stereo partly drawn) [Example 35, 3-(6-(9-((4-((1-(((7-(8-ethynyl-7-fluoro-3-hydroxynaphthalen-1-yl)-8-fluoro-4-((R)-3-hydroxy-3-methylpiperidin-1-yl)pyrido[4,3-d]pyrimidin-2-yl)oxy)methyl)cyclopropyl)methyl)piperazin-1-yl)methyl)-3-azaspiro[5.5]undecane-3-carbonyl)-1-oxoisoindolin-2-yl)piperidine-2,6-dione]
≤ 50 | 80 to 100 | 100 to 500 | ≤ 50 | ≤ 50 | 50 to 100 | ≤ 50 | – | ≤ 50 | – | C#Cc1c(F)ccc2cc(O)cc(-c3ccc4c(N5CCC[C@@](C)(O)C5)nc(OCC5(CN6CCC(CCOCC7CCN(C(=O)c8ccc(C)c(N9CCC(=O)NC9=O)c8)CC7)CC6)CC5)nc4c3F)c12 [Example 34, (R)-1-(5-(4-((2-(1-((1-(((7-(8-ethynyl-7-fluoro-3-hydroxynaphthalen-1-yl)-8-fluoro-4-(3-hydroxy-3-methylpiperidin-1-yl)quinazolin-2-yl)oxy)methyl)cyclopropyl)methyl)piperidin-4-yl)ethoxy)methyl)piperidine-1-carbonyl)-2-methylphenyl)dihydropyrimidine-2,4(1H,3H)-dione]

The next lines start with the compound.

Structure (SMILES) | DC50 [1] [nM] | Dmax [1] [%] | IC50 [2] [nM] | IC50 [3] [nM] | IC50 [4] [nM] | IC50 [5] [nM] | IC50 [6] [nM] | IC50 [7] [nM] | IC50 [8] [nM] | IC50 [9] [nM]
C#Cc1c(F)ccc2cc(O)cc(-c3ncc4c(N5CCC[C@@](C)(O)C5)nc(OCC5(CN6CCC(CCOCC7CCN(C(=O)c8ccc(Cl)c(N9CCC(=O)NC9=O)c8)CC7)CC6)CC5)nc4c3F)c12 [Example 8, (R)-1-(2-chloro-5-(4-((2-(1-((1-(((7-(8-ethynyl-7-fluoro-3-hydroxynaphthalen-1-yl)-8-fluoro-4-(3-hydroxy-3-methylpiperidin-1-yl)pyrido[4,3-d]pyrimidin-2-yl)oxy)methyl)cyclopropyl)methyl)piperidin-4-yl)ethoxy)methyl)piperidine-1-carbonyl)phenyl)dihydropyrimidine-2,4(1H,3H)-dione] | ≤ 50 | 80 to 100 | 50 to 100 | ≤ 50 | ≤ 50 | ≤ 50 | ≤ 50 | ≤ 50 | ≤ 50 | –
C#Cc1c(F)ccc2cc(O)cc(-c3ccc4c(N5CCC[C@@](C)(O)C5)nc(OCC5(CN6CCN(CC7CCC8(CC7)CCN(C(=O)c7ccc(OC)c(N9CCC(=O)NC9=O)c7)CC8)CC6)CC5)nc4c3F)c12 [Example 21, (R)-1-(5-(9-((4-((1-(((7-(8-ethynyl-7-fluoro-3-hydroxynaphthalen-1-yl)-8-fluoro-4-(3-hydroxy-3-methylpiperidin-1-yl)quinazolin-2-yl)oxy)methyl)cyclopropyl)methyl)piperazin-1-yl)methyl)-3-azaspiro[5.5]undecane-3-carbonyl)-2-methoxyphenyl)dihydropyrimidine-2,4(1H,3H)-dione] | ≤ 50 | 80 to 100 | 50 to 100 | ≤ 50 | ≤ 50 | 100 to 500 | ≤ 50 | – | ≤ 50 | 5.54
C#Cc1c(F)ccc2cc(O)cc(-c3ncc4c(N5CCC[C@@](C)(O)C5)nc(OCC5(CN6CCC(COCCC7CCN(C(=O)c8ccc(Cl)c(N9CCC(=O)NC9=O)c8)CC7)CC6)CC5)nc4c3F)c12 [Example 10, (R)-1-(2-chloro-5-(4-(2-((1-((1-(((7-(8-ethynyl-7-fluoro-3-hydroxynaphthalen-1-yl)-8-fluoro-4-(3-hydroxy-3-methylpiperidin-1-yl)pyrido[4,3-d]pyrimidin-2-yl)oxy)methyl)cyclopropyl)methyl)piperidin-4-yl)methoxy)ethyl)piperidine-1-carbonyl)phenyl)dihydropyrimidine-2,4(1H,3H)-dione] | ≤ 50 | 80 to 100 | 50 to 100 | ≤ 50 | 50 to 100 | ≤ 50 | ≤ 50 | 50 to 100 | ≤ 50 | –
CCc1cccc2cc(O)cc(-c3ccc4c(N5CCC[C@@](C)(O)C5)nc(OCC5(CN6CCN(CC7CCC8(CC7)CCN(C(=O)c7ccc(Cl)c(N9CCC(=O)NC9=O)c7)CC8)CC6)CC5)nc4c3F)c12 [Example 12, (R)-1-(2-chloro-5-(9-((4-((1-(((7-(8-ethyl-3-hydroxynaphthalen-1-yl)-8-fluoro-4-(3-hydroxy-3-methylpiperidin-1-yl)quinazolin-2-yl)oxy)methyl)cyclopropyl)methyl)piperazin-1-yl)methyl)-3-azaspiro[5.5]undecane-3-carbonyl)phenyl)dihydropyrimidine-2,4(1H,3H)-dione] | ≤ 50 | 80 to 100 | 100 to 500 | ≤ 50 | 100 to 500 | ≤ 50 | ≤ 50 | – | ≤ 50 | 15.3
C#Cc1c(F)ccc2cc(O)cc(-c3ncc4c(N5CCC[C@@](C)(O)C5)nc(OCC5(CN6CCN(CCCC7CCN(C(=O)c8ccc(Cl)c(N9CCC(=O)NC9=O)c8)CC7)CC6)CC5)nc4c3F)c12 [Example 4, (R)-1-(2-chloro-5-(4-(3-(4-((1-(((7-(8-ethynyl-7-fluoro-3-hydroxynaphthalen-1-yl)-8-fluoro-4-(3-hydroxy-3-methylpiperidin-1-yl)pyrido[4,3-d]pyrimidin-2-yl)oxy)methyl)cyclopropyl)methyl)piperazin-1-yl)propyl)piperidine-1-carbonyl)phenyl)dihydropyrimidine-2,4(1H,3H)-dione] | ≤ 50 | 80 to 100 | 100 to 500 | ≤ 50 | 50 to 100 | ≤ 50 | ≤ 50 | – | ≤ 50 | –
